Data reported in US4812462A, “4,5,6,7-tetrahydro-1H-imidazo[4,5-c]pyridine-6-carboxylic acid analogs having antihypertensive activity” (Warner-Lambert Company, priority 1986, dated 1989).
Structures can show the parent of a compound that is named as a salt.

Assays:
[1] = molecular target: angiotensin II binding to rat adrenal receptor preparations; assay: inhibition of 125I-angiotensin II binding to rat adrenal receptor preparations
[2] = tested on: 2 kidney, 1-clip Goldblatt hypertensive rat (RHR); assay: blood pressure lowering in conscious 2 kidney, 1-clip Goldblatt (renal) hypertensive rats (RHR), AHP3; assay type: in vivo; conditions: 30 mg/kg ip, read-out: Max % decrease in blood pressure, 30 mg/kg ip in RHR
Description: (§1) Thus, for example, compounds of formula I when administered intraperitoneally or orally to 2 kidney, 1-clip Goldblatt (renal) hypertensive rats (See S Sen, et al., "Role of Renin-Angiotensin System in Chronic Renal Hypertensive Rats," Hypertension 1:427-434 (1979) and Clin. Soc. 57:53-62, 1979, "Antihypertensive Effect of Prolonged Blockade of Angiotensin Formation in Benign and Malignant, one-and two-kidney Goldblatt Hypertensive Rats".) at doses in the range of 1-100 mg/kg cause 10-80 mmHg drops in blood pressure. […] Angiotensin binding inhibition activity and blood pressure lowering activity in renal hypertensive rats of the optimally substituted examples of formula I are listed in Table 1. Blood pressure lowering activity in spontaneously hypertensive rats of optimally substituted examples of formula II are listed in Table 2.
(§2) […] EVALUATION (AHP3)
(§3) A Method for the Direct Monitoring of Aortic Blood Pressure and Heart Rate from Conscious Rats
(§4) The continuous monitoring of pulsatile blood pressure (BP) from unrestrained conscious rats surgically equipped with polyethylene cannulas was accomplished by means of a computer assisted data capture scheme (CADCS). The basic elements of the methodology are the cannulation procedure and the CADCS.
(§5) Rats were anesthetized with Telazol (1:1 tiletamine HCl and zolazepam HCl); 20-40 mg/kg IM and the descending aorta exposed via a midline incision. Cannulas fabricated from polyethylene tubing were inserted into the aorta via an undersized puncture hole below the renal arteries. The puncture hole was made by a 23 G disposable needle with a section of the aorta clamped off above and below the puncture site. The cannulas, consisting of a PE100 (0.86 mm ID) body and a PE50 (0.58 mm ID) tip, were attached to a trocar, inserted through the psoas muscle, and passed subcutaneously along the midline of the back and externalized between the ears. The cannulas were anchored to the psoas muscle and between the scalulae (3-0 green braided suture). The midline incision was closed in two steps (muscle first, skin second) using continuous over-and-over sutures (4-0 chronic). Each rat was then given penicillin 30,000 units subcutaneously (Penicillin G Procaine Sterile Suspension).
(§6) The rats were fitted with a harness-springswivel assembly designed to protect the cannula and to provide the rat relative freedom of movement. The harnesses were fabricated from nylon hook and loop tape cemented to a metal plate to which spring wires (18-8 stainless steel), were attached to brass swivels. Each polyethylene cannula was channeled through a spring and connected through a swivel to a pressure transducer (Model P23Gb; Statham Instruments; Hato Rey, Puerto Rico) and an infusion pump (Sage model 234-7; Orion Research, Cambridge, Mass.) by means of PE100 tubing. While on test, each rat received a continuous slow infusion of heparinized saline solution (approximately 0.40 ml or 40 units of heparin per 24 hr period) to prevent clot formation. Additional "flushes" of the cannula with heparinized saline were carried out when the aortic pulse pressure (systolic minus diastolic) was less than 25 mm Hg.
(§7) The pulsatile blood pressure of each of 32 rats was monitored continuously by two signal conditioning units (Gould, Clev., Ohio). The signals from these units were monitored and digital data for mean, systolic, and diastolic blood pressures as well as for heart rate were calculated every 5 min by two in-laboratory computers (Hewlett Packard, Cupertino, Calif.). These in-laboratory computers have the capacity to store 32 days of this 5 min data. Communication with the mainframe research computer (IBM 3083) from the two inlaboratory computers allowed for data analysis and report generation. […]

[3] = tested on: spontaneously hypertensive rat (SHR); assay: blood pressure lowering in conscious spontaneously hypertensive rats (SHR), AHP3; assay type: in vivo; conditions: 30 mg/kg PO, read-out: Max % decrease in blood pressure, 30 mg/kg PO in SHR
Description: as §1, §2, §3, §4, §5, §6, §7

Structure (SMILES)	IC50 [1]	change in vivo at 30 mg/kg [2]	change in vivo at 30 mg/kg [3]
COc1ccc(Cn2cnc3c2C[C@@H](C(=O)O)N(C(=O)CC2CCCCC2)C3)cc1C [Example 26, (S)-5-(cyclohexylacetyl)-4,5,6,7-tetrahydro-1-[(4-methoxy-3-methylphenyl)methyl]-1H-imidazo-[4,5-c]-pyridine-6-carboxylic acid]	2 µM	-18%	–
COc1ccc(N2C(=O)C3Cc4[nH]cnc4CN3C2=O)cc1 (stereo not drawn) [Example 155, 8a,9-Dihydro-7-(4-methoxyphenyl)-1H-diimidazo[1,5-a:4',5'-d]pyridine-6,8(4H,7H)-dione]	–	–	-39%
COc1ccc(N2C(=O)C3Cc4c(ncn4Cc4ccc(OC)c(C)c4)CN3C2=S)cc1 (stereo not drawn) [Example 127, 6,7,8a,9-Tetrahydro-1-[(4-methoxy-3-methylphenyl)-methyl]-7-(4-methoxyphenyl)-6-thioxo-1H-diimidazo-[1,5-a:4',5'-d]-pyridine-8(4H)-one]	–	–	-24%
COc1ccc(Cn2cnc3c2C[C@@H](C(=O)O)N(C(=O)C(c2ccccc2)C2CCCC2)C3)cc1C (stereo partly drawn) [Example 24, (S)-5-(cyclopentylphenylacetyl)-4,5,6,7-tetrahydro-1-[(4-methoxy-3-methylphenyl)methyl]-1H-imidazo-[4,5-c]pyridine-6-carboxylic acid]	0.07 µM	-16%	–
O=C1C2Cc3[nH]cnc3CN2C(=S)N1c1ccccc1 (stereo not drawn) [Example 161, 1,4,6,7,8a,9-Hexahydro-7-phenyl-6-thioxo-8H-diimidazo[1,5-a:4',5'-d]pyridine-8-one]	–	–	-28%
O=C(O)[C@@H]1Cc2c(ncn2Cc2ccccc2)CN1C(=O)C(c1ccc(F)cc1)c1ccc(F)cc1 [Example 23, (S)-5-[bis(4-fluorophenyl)acetyl]-4,5,6,7-tetrahydro-1-(phenylmethyl)-1H-imidazo[4,5-c]pyridine-6-carboxylic acid]	2.1 µM	-22%	–
Cc1cccc(Cn2cnc3c2C[C@@H](C(=O)O)N(C(=O)C(c2ccccc2)c2ccccc2)C3)c1 [Example 75, 1H-Imidazo[4,5-c]pyridine-6-carboxylic acid, 5-(diphenylacetyl)-4,5,6,7-tetrahydro-1-[(3-methylphenyl)methyl]-, (S)-]	0.27 µM	-30%	–
CC(C)N1C(=O)C2Cc3[nH]cnc3CN2C1=S (stereo not drawn) [Example 162, 1,4,6,7,8a,9-Hexahydro-7-(1-methylethyl)-6-thioxo-8H-diimidazo-(1,5-a:4',5'-d]pyridine-8-one]	–	–	-39%
COc1ccc(N2C(=O)C3Cc4c(ncn4Cc4ccccc4)CN3C2=S)cc1 (stereo not drawn) [Example 128, 6,7,8a,9-Tetrahydro-7-(4-methoxyphenyl)-1-(phenylmethyl)-6-thioxo-1H-diimidazo[1,5-a:4',5'-d]pyridine-8(4H)-one]	–	–	-32%
COc1ccc(N2C(=O)C3Cc4[nH]cnc4CN3C2=S)cc1 (stereo not drawn) [Example 159, 1,4,6,7,8a,9-Hexahydro-7-(4-methoxyphenyl)-6-thioxo-8H-diimidazo[1,5-a:4',5'-d]pyridine-8-one]	–	–	-39%
COc1ccc(Cn2cnc3c2C[C@@H](C(=O)O)N(C(=O)C(c2ccc(C)cc2)c2ccc(C)cc2)C3)cc1C [Example 25, (S)-[bis(4-methylphenyl)acetyl]-4,5,6,7-tetrahydro-1-[(4-methoxy-3-methylphenyl)methyl]-1H-imidazo[4,5-c]-pyridine-6-carboxylic acid]	–	-12%	–
O=C(O)C1Cc2c(ncn2Cc2ccccc2)CN1C(=O)C(c1ccccc1)c1ccccc1 (stereo not drawn) [Example 169, 5-(Diphenylacetyl)-4,5,6,7-tetrahydro-1-(phenylmethyl)-1H-imidazo[4,5-c]pyridine-6-carboxylic acid]	1 µM	-20%	–
CC(C)N1C(=O)C2Cc3c(ncn3Cc3ccccc3)CN2C1=O (stereo not drawn) [Example 130, 8a,9-Dihydro-7-(1-methylethyl)-1-(phenylmethyl)-1H-diimidazo[1,5-a:4',5'-d]pyridine-6,8(4H,7H)-dione hydrobromide]	–	–	-21%
CC(C)(C)N1C(=O)C2Cc3[nH]cnc3CN2C1=O (stereo not drawn) [Example 156, 7-(1,1-Dimethylethyl)-8a,9-dihydro-1H-diimidazo[1,5-a:4',5'-d]pyridine-6,8(4H,7H)-dione]	–	–	-18%
COc1ccc(Cn2cnc3c2CC(C(=O)O)N(C(=O)C(c2ccccc2)c2ccccc2)C3)cc1C (stereo not drawn) [Example 19, 1-(3-Methyl-4-methoxyphenyl)methyl-5-diphenylacetyl-4,5,6,7-tetrahydro-1H-imidazo[4,5-c]-pyridine-6-carboxylic acid]	0.07 µM	-14%	–
O=C(O)C1Cc2c(ncn2Cc2ccccc2O)CN1C(=O)C(c1ccccc1)c1ccccc1 (stereo not drawn) [Example 17, 1-(2-Hydroxyphenyl)methyl-5-diphenylacetyl-4,5,6,7-tetrahydro-1H-imidazo[4,5-c]pyridine-6-carboxylic acid]	0.69 µM	-21%	–
O=C(O)C1Cc2c(ncn2Cc2ccccc2)CN1C(=O)C1c2ccccc2-c2ccccc21 (single isomer, unassigned) [Example 29, 1H-Imidazo[4,5-c]pyridine-6-carboxylic acid, 5-[(9H-fluoren-9-yl)carbonyl]-4,5,6,7-tetrahydro-1-(phenylmethyl)-, (+)-]	8 µM	–	–
O=C(O)[C@@H]1Cc2c(ncn2Cc2ccccc2)CN1C(=O)C(c1ccc(Cl)cc1)c1ccc(Cl)cc1 [Example 22, (S)-5-[bis(4-chlorophenyl)acetyl]-4,5,6,7-tetrahydro-1-(phenylmethyl)-1H-imidazo[4,5-c]pyridine-6-carboxylic acid]	6.8 µM	-27%	–
COc1ccc(N2C(=O)C3Cc4c(ncn4Cc4ccc([N+](=O)[O-])c(C)c4)CN3C2=O)cc1 (stereo not drawn) [Example 273, 1H-Diimidazo[1,5-c:4',5'-d]pyridine-6,8(4H,7H)-dione, 8a,9-dihydro-7-(4-methoxyphenyl)-1-[(3-methyl-4nitrophenyl)methyl], monohydrochloride]	–	–	-14%
COc1ccc(N2C(=O)C3Cc4[nH]cnc4CN3C2=O)c(OC)c1 (stereo not drawn) [Example 157, 7-(2,4-Dimethoxyphenyl)-8a,9-dihydro-1H-diimidazo[1,5-a:4',5'-d]pyridine-6,8(4H,7H)-dione]	–	–	-22%
CN(C)c1ccc(N2C(=O)C3Cc4[nH]cnc4CN3C2=S)cc1 (stereo not drawn) [Example 160, 7-[4-(Dimethylamino)phenyl]-1,4,6,7,8a,9-hexahydro-6-thioxo-8H-diimidazo[1,5-a:4',5'-d]pyridine-8-one]	–	–	-34%
Cc1cc(Cn2cnc3c2CC(C(=O)O)N(C(=O)C(c2ccccc2)c2ccccc2)C3)ccc1N (stereo not drawn) [Example 13, 1-(4-Amino-3-methylphenyl)methyl-5-diphenylacetyl-4,5,6,7-tetrahydro-1H-imidazo[4,5-c]pyridine-6-carboxylic acid]	–	-22%	–
CC(C)N1C(=O)C2Cc3nc[nH]c3CN2C1=O (stereo not drawn) [Example 154, 8a,9-Dihydro-7-(1-methylethyl)-3H-diimidazo[1,5-a:4',5'-d]-pyridine-6,8(4H,7H)-dione]	–	–	-39%
COc1ccc(N2C(=O)C3Cc4c(ncn4Cc4ccccc4)CN3C2=O)cc1 (stereo not drawn) [Example 133, 1H-Diimidazo[1,5-a:4',5'-d]pyridine-6,8(4H,7H)-dione, 8a,9-dihydro-7-(4-methoxyphenyl)-1-(phenylmethyl)-, monohydrochloride]	–	–	-29%
CC(C)N1C(=O)[C@@H]2Cc3ncn(C)c3CN2C1=O [Example 129, (S)-8a,9-dihydro-3-methyl-7-(1-methylethyl)-3H-diimidazo-[1,5-a:4',5'-d]pyridine-6,8(4H,7H)-dione]	–	–	-36%
